Laboratory results published in DBAASP.
≈ marks a conversion by molar mass, not a printed value.

What was measured:
Experiment in all cases: ≥ marks a high value that may be exact or a test limit, other limits are often not marked, values filed in µg/mL are converted to µM
[1] = system: Pseudomonas aeruginosa PAO1
[2] = system: Streptococcus pyogenes M1T1 5448
[3] = system: Escherichia coli BL21
[4] = system: Streptococcus thermophilus YM-C
[5] = system: Salmonella enterica subsp. enterica serovar Pullorum ATCC 7913
[6] = system: Staphylococcus aureus ATCC 25923
[7] = system: Escherichia coli 078
[8] = system: Lacticaseibacillus rhamnosus 7469
[9] = system: Staphylococcus epidermidis ATCC 12228
[10] = system: Escherichia coli ATCC 25922
[11] = system: Staphylococcus aureus ATCC 29213
[12] = system: Salmonella enterica subsp. enterica serovar Typhimurium C77-31
[13] = system: Streptococcus agalactiae CICC 10465
[14] = system: Streptococcus agalactiae
[15] = system: Pseudomonas aeruginosa ATCC 27853
[16] = system: Escherichia coli UB1005
[17] = system: Salmonella enterica subsp. enterica serovar Typhimurium ATCC 14028
[18] = system: Pseudomonas aeruginosa Z61
[19] = system: Pseudomonas aeruginosa K799
[20] = system: Salmonella enterica subsp. enterica serovar Typhimurium ATCC 14028s
[21] = system: Pseudomonas aeruginosa H744
[22] = system: Pseudomonas aeruginosa H547
[23] = system: Yersinia enterocolitica
[24] = system: Salmonella sp.
[25] = system: Staphylococcus aureus ATCC 43300
[26] = system: Salmonella enterica subsp. enterica serovar Enteritidis
[27] = system: Escherichia coli
[28] = system: Cryptococcus neoformans ATCC 32264
[29] = system: Candida albicans ATCC 10231
[30] = system: Staphylococcus aureus USA 300

Row | Structure (SMILES) | MIC [1] [µM] | MIC [2] [µM] | MIC [3] [µM] | MIC [10] [µM] | MIC [11] [µM] | MIC [15] [µM] | MIC [16] [µM] | MIC [23] [µM] | MIC [24] [µM] | MIC [25] [µM] | MIC [26] [µM] | MIC [27] [µM] | further results
1 | CC[C@H](C)[C@H](NC(=O)[C@H](CCCN=C(N)N)NC(=O)CNC(=O)[C@@H](NC(=O)[C@H](CCCCN)NC(=O)[C@H](CCCN=C(N)N)NC(=O)[C@@H](NC(=O)[C@H](Cc1ccc(O)cc1)NC(=O)[C@H](CCCN=C(N)N)NC(=O)[C@H](CCCN=C(N)N)NC(=O)[C@H](CC(C)C)NC(=O)[C@H](CCC(=O)O)NC(=O)[C@H](CCCCN)NC(=O)[C@H](C)NC(=O)[C@@H](NC(=O)[C@H](CCCN=C(N)N)NC(=O)[C@H](CC(N)=O)NC(=O)[C@@H](NC(=O)CNC(=O)[C@H](C)N)[C@@H](C)O)[C@@H](C)CC)[C@@H](C)CC)C(C)C)C(=O)N[C@@H](C)C(=O)N[C@@H](CCCN=C(N)N)C(=O)N[C@@H](CCCCN)C(=O)N[C@@H](CCCCN)C(=O)N[C@@H](Cc1c[nH]c2ccccc12)C(=O)O [AGTNRIAKELRRYIRKVGRIARKKW] | 16 (≈ 48.7 µg/mL) | 1 (≈ 3.04 µg/mL) | 1 (≈ 3.04 µg/mL) |  |  |  |  |  |  |  |  |  | 
2 | CC[C@H](C)[C@H](NC(=O)[C@H](CC(C)C)NC(=O)[C@@H](NC(=O)[C@@H](N)CC(=O)O)[C@@H](C)CC)C(=O)N[C@H](C(=O)N[C@H](C(=O)NCC(=O)NCC(=O)N[C@@H](CCCN=C(N)N)C(=O)N[C@@H](CCCN=C(N)N)C(=O)N[C@@H](CCCN=C(N)N)C(=O)N[C@@H](CCCN=C(N)N)C(=O)N[C@@H](CCCN=C(N)N)C(=O)N[C@@H](CCCN=C(N)N)C(N)=O)C(C)C)[C@@H](C)CC [DILIIVGGRRRRRR] |  |  |  | 16 (≈ 27.8 µg/mL) | 2 (≈ 3.47 µg/mL) | > 64 | 16 (≈ 27.8 µg/mL) |  |  |  |  |  | MIC [4]: ≥ 64 µM; MIC [5]: 8 µM (≈ 13.9 µg/mL); MIC [6]: > 64 µM; MIC [7]: ≥ 32 µM; MIC [8]: ≥ 64 µM; MIC [9]: 2 µM (≈ 3.47 µg/mL); MIC [12]: ≥ 64 µM; MIC [13]: 2 µM (≈ 3.47 µg/mL); MIC [14]: 5.66 µM (≈ 9.82 µg/mL); MIC [17]: > 64 µM
3 | CC(C)C[C@H](NC(=O)[C@H](C)NC(=O)[C@H](CC(N)=O)NC(=O)[C@@H]1CCCN1C(=O)CNC(=O)[C@H](CO)NC(=O)[C@H](CC(N)=O)NC(=O)[C@@H](NC(=O)[C@H](C)NC(=O)[C@H](CCCCN)NC(=O)[C@H](CCC(N)=O)NC(=O)[C@H](C)NC(=O)[C@H](CCCCN)NC(=O)[C@H](Cc1c[nH]c2ccccc12)NC(=O)[C@H](Cc1c[nH]c2ccccc12)NC(=O)[C@H](CCCCN)NC(=O)[C@@H](N)CCCCN)C(C)C)C(=O)N[C@@H](CCC(N)=O)C(=O)N[C@H](C(=O)N[C@@H](CC(C)C)C(=O)N[C@@H](C)C(=O)N[C@@H](CCC(N)=O)C(=O)O)[C@@H](C)O [KKWWKAQKAVNSGPNALQTLAQ] |  |  |  |  |  |  | 25.9 (≈ 64 µg/mL) |  |  |  |  |  | MIC [18]: 25.9 µM (≈ 64 µg/mL); MIC [19]: 25.9 µM (≈ 64 µg/mL); MIC [20]: 25.9 µM (≈ 64 µg/mL); MIC [21]: 25.9 µM (≈ 64 µg/mL); MIC [22]: 25.9 µM (≈ 64 µg/mL)

Now from value to molecule, other results behind:

Row | MIC [1] [µM] | MIC [2] [µM] | MIC [3] [µM] | MIC [10] [µM] | MIC [11] [µM] | MIC [15] [µM] | MIC [16] [µM] | MIC [23] [µM] | MIC [24] [µM] | MIC [25] [µM] | MIC [26] [µM] | MIC [27] [µM] | Structure (SMILES) | further results
4 |  |  |  | > 50 | > 50 | > 50 |  | ≥ 50 | ≥ 50 | > 50 | ≥ 50 | > 50 | CC[C@H](C)[C@H](NC(=O)[C@H](CCC(N)=O)NC(=O)[C@@H](N)CCCN=C(N)N)C(=O)N[C@@H](CCCN=C(N)N)C(=O)N[C@@H](Cc1c[nH]c2ccccc12)C(N)=O [RQIRW] | 
5 |  |  |  | > 50 | > 50 | > 50 |  | ≥ 50 | ≥ 50 | > 50 | 25 (≈ 66.9 µg/mL) | > 50 | N=C(N)NCCC[C@H](NC(=O)[C@H](CCCNC(=N)N)NC(=O)[C@H](Cc1c[nH]c2ccccc12)NC(=O)[C@H](Cc1c[nH]c2ccccc12)NC(=O)[C@H](Cc1c[nH]c2ccccc12)NC(=O)[C@H](Cc1c[nH]c2ccccc12)NC(=O)[C@H](Cc1c[nH]c2ccccc12)NC(=O)[C@H](CCCCN)NC(=O)[C@H](Cc1c[nH]c2ccccc12)NC(=O)[C@H](Cc1c[nH]c2ccccc12)NC(=O)[C@@H](N)CCCNC(=N)N)C(=O)N[C@@H](Cc1c[nH]c2ccccc12)C(=O)N[C@@H](CCCCN)C(=O)N[C@@H](Cc1c[nH]c2ccccc12)C(=O)N[C@@H](CCCCN)C(=O)N[C@@H](CCCCN)C(N)=O [RWWKWWWWWRRWKWKK] | MIC [28]: ≥ 200 µM; MIC [29]: 100 µM (≈ 267 µg/mL)
6 | 64 (≈ 196 µg/mL) | 2 (≈ 6.13 µg/mL) | 16 (≈ 49 µg/mL) |  |  |  |  |  |  |  |  |  | CC[C@H](C)[C@H](NC(=O)[C@H](Cc1ccccc1)NC(=O)[C@H](C)NC(=O)[C@H](CCCCN)NC(=O)[C@H](CCCCN)NC(=O)CNC(=O)[C@H](CCCN=C(N)N)NC(=O)[C@H](CCCCN)NC(=O)[C@H](CCCN=C(N)N)NC(=O)[C@H](CC(C)C)NC(=O)[C@H](CCC(=O)O)NC(=O)[C@H](CCC(=O)O)NC(=O)[C@H](CC(C)C)NC(=O)[C@H](CC(C)C)NC(=O)[C@H](Cc1ccc(O)cc1)NC(=O)[C@H](CCCCN)NC(=O)[C@@H](NC(=O)[C@H](CC(C)C)NC(=O)[C@H](C)NC(=O)[C@H](CCC(N)=O)NC(=O)[C@H](CCCN=C(N)N)NC(=O)CNC(=O)[C@@H](N)Cc1c[nH]c2ccccc12)[C@@H](C)O)C(=O)N[C@@H](C)C(=O)N[C@@H](Cc1c[nH]c2ccccc12)C(=O)O [WGRQALTKYLLEELRKRGKKAFIAW] | MIC [30]: ≥ 128 µM
